Data from patent US6699983B1, “Integrin-linked kinase and its uses” (Sunnybrook Health Sciences Centre, priority 1995, dated 2004).

Assays:
ILK [1] = assay: ILK activation by insulin in IEC-18 cells (immune complex kinase assay, MBP substrate); assay type: cell-based, rat; conditions: quiescent, serum-starved IEC-18 cells
Protocol: Assessment of ILK activation by insulin on IEC-18 cells. IEC 18 cells are rat colon epithelial cells that are cultured routinely in α-MEM medium supplemented with insulin (10 mg/liter), glucose 3.6 g/liter, and 5% FCS. When IEC 18 cells are grown to 80% confluence, they are serum starved for 18 hours prior to activation by insulin. Before addition of insulin, media are removed and 4 ml of α-MEM+insulin 6 μM is added to the 100 mm dishes. P13 kinase inhibitors such as LY294002 at 50 μM or wortmannin at 200 nM are added optionally to block P13 kinase dependent ILK activation. At the designated times, dishes are washed 3× with ice cold PBS and cells are lysed in 500 μl lysis buffer: 150 mM NaCI, 1% NP-40, 0.5% sodium deoxycholate, 50 mM Hepes pH 7.5, 10 μg/ml leupeptin, 1 mM PMSF, 2.5 μl aprotinin/mi lysis buffer, NaF 5 mM, Sodium vanadate 1 mM. After assessment of protein concentration by Bradford assay, 500 μl samples containing 200 μg of proteins are incubated for 2 hrs at 4° C. with 20 μl of Protein A-Sepharose to preadsorb the non specific kinases. The lysate is then incubated overnight with 2 μg of rabbit anti ILK antiserum at 4° C. under rotation.
The immunocomplexes are then captured by incubating the lysate with 15 μl of Protein A Sepharose for 2 hrs at 4° C. […] Phosphorylation level of MBP is assessed by phosphorimager analysis or exposure to an X ray film.

ILK [2] = biological target: T1, ILK (Homo sapiens, UniProt Q13418); assay: Regulation of ILK kinase by phosphoinositides in vitro (ILK5-GST, MBP substrate); assay type: biochemical; conditions: lipid vesicles with phosphatidylserine and phosphatidylcholine, 30° C.
T1 construct: GST
T1 sequence (Q13418 1-452): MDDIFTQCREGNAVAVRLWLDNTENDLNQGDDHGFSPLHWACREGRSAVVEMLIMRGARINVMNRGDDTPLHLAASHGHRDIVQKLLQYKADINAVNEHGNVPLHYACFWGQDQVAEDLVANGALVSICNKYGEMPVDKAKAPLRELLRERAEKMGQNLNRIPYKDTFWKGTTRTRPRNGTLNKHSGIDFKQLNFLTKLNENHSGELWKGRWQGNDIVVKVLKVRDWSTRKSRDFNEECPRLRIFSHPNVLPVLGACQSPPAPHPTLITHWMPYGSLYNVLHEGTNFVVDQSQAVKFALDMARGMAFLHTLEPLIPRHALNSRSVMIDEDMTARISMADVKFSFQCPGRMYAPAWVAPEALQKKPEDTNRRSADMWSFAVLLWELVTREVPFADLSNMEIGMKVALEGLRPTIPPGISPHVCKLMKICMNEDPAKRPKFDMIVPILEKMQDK
Protocol: Assessment of regulation of ILK kinase by phosphoinositides. Ptdlns(3)P, Ptdins(3,4)P2 and Ptdlns(3,4,5)P3 were dried under nitrogen and resuspended at 0.1 mM in Hepes 10 mM, pH 7. 0 with phosphatidylserineand phosphatidylcholine, both at 1 mM. The lipid suspensions were vortexed and further sonicated for 20 min in order to generate unilamellar vesicles. 11 μl of ILK5-GST in kinase buffer were combined to 4 μl of lipids and 25 μl of kinase reaction solution containing 2.5 μl of MBP and 5 μCi of γ^32 P-ATP. The reaction proceeded for […] at 30° C. The reaction was stopped by adding an equal volume of 2× sample buffer. The samples were run on a 12% non reducing SDS-PAGE gel.

ILK activity in vitro in the presence of phosphoinositide (ILK [2])	Substance	stimulation of ILK activity (ILK [1])
	insulin	rapidly stimulated
stimulated	phosphatidylinositol (3,4,5) trisphosphate [Ptdlns(3,4,5)P3]	
not	phosphatidylinositol(3) monophosphate [Ptdlns(3)P]	
not	phosphatidylinositol(3,4) bisphosphate [Ptdlns(3,4)P2]	
